Test results published in the supplement of paper PMC12317010.
Counter-ions that a name gives are not always drawn.

Assay: collision cross section in nitrogen (drift tube, single-field); higher = larger gas-phase ion size
[1] = ion type: [M+H], ion source: APCI, ion mode: Positive
[2] = ion type: [M+H], ion source: ESI, ion mode: Positive
[3] = ion type: [M-H], ion source: ESI, ion mode: Negative
[4] = ion type: [M+], ion source: APCI, ion mode: Positive
[5] = ion type: [M+Na], ion source: ESI, ion mode: Positive
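Also: chemical standards at 10 µM analysed by drift tube IMS-QTOF MS in about 3.95 torr nitrogen, mean of duplicate injections differing ≤1%, mass error below 10 ppm.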

Compound | collision cross section in nitrogen [2] [Å²] | collision cross section in nitrogen [3] [Å²] | other results
On1nnc2ccccc21 [1-Hydroxybenzotriazole] | 125.9 | 122.6 | collision cross section in nitrogen [1]: 124.9 Å²
Oc1ccc2ccc3cccc4ccc1c2c34 [1-Hydroxypyrene] |  | 146.2 | collision cross section in nitrogen [4]: 141.9 Å²
Cn1c(=S)[nH]c2ccccc21 [1-Methyl-1,3-dihydro-2H-benzimidazole-2-thione] | 130.9 | 131.4 | collision cross section in nitrogen [1]: 130.7 Å²; collision cross section in nitrogen [4]: 127.9 Å²
CNC(=N[N+](=O)[O-])NCC1CCOC1 (stereo not drawn) [1-Methyl-2-nitro-3-((tetrahydrofuran-3-yl)methyl)guanidine] |  | 148.7 | collision cross section in nitrogen [5]: 150.6 Å²
Cn1cc(-c2ccccc2)c(=O)c(-c2cccc(C(F)(F)F)c2)c1 [1-Methyl-3-phenyl-5-(3-(trifluoromethyl)phenyl)-4-pyridone] | 179.8 | 178.9 | collision cross section in nitrogen [1]: 179.6 Å²; collision cross section in nitrogen [5]: 187.5 Å²
CCCCCCCCCCCC(=O)OCC(O)CO (stereo not drawn) [1-Monolaurin] |  |  | collision cross section in nitrogen [5]: 176.3 Å²
Nc1cccc2ccccc12 [1-Naphthylamine] | 127.6 |  | collision cross section in nitrogen [4]: 125 Å²
CCCCCCCCN1CCCC1=O [1-Octyl-2-pyrrolidone] | 158.5 |  | collision cross section in nitrogen [1]: 158.6 Å²
O=C1C=CC(=O)N1c1ccccc1 [1-Phenyl-1H-pyrrole-2,5-dione] | 135.3 |  | 
CC1=NN(c2ccccc2)C(=O)C1 [1-Phenyl-3-methyl-5-pyrazolone] | 137.7 | 137.8 | 
OCCN1CCNCC1 [1-Piperazineethanol] | 125.6 |  | collision cross section in nitrogen [1]: 124.7 Å²
CC(=O)NCCCS(=O)(=O)O [1-Propanesulfonic acid, 3-(acetylamino)-, calcium salt (2:1)] |  | 134.9 | 
CC(O)CN(CCCN(C)C)CCCN(C)C (stereo not drawn) [1-{Bis[3-(dimethylamino)propyl]amino}propan-2-ol] | 158.1 |  | collision cross section in nitrogen [1]: 157.5 Å²; collision cross section in nitrogen [5]: 158.4 Å²
c1nc[nH]n1 [1H-1,2,4-Triazole] |  | 107.7 | 
O=C1NC(=O)c2cccc3cccc1c23 [1H-Benzo[de]isoquinoline-1,3(2H)-dione] |  | 140.8 | 
N=C1NC(=N)c2ccccc21 [1H-Isoindole-1,3(2H)-diimine] | 126.4 |  | 
O=C1OC2(c3ccccc31)c1cc(Br)c(O)c(Br)c1Oc1c2cc(Br)c(O)c1Br [2',4',5',7'-Tetrabromofluorescein] | 204.7 | 208.7 | 
CCCC(=O)c1cc(O)c(O)cc1O [2',4',5'-Trihydroxybutyrophenone] |  | 141.3 | 
O=c1cccc[nH]1 [2(1H)-Pyridinone] | 115.5 |  | 

Compound | collision cross section in nitrogen [2] [Å²] | collision cross section in nitrogen [3] [Å²] | other results
OCCN(CCO)CCN(CCO)CCO [2,2',2'',2'''-(1,2-Ethanediyldinitrilo)tetrakisethanol] | 149.6 |  | collision cross section in nitrogen [1]: 149.2 Å²; collision cross section in nitrogen [5]: 151.1 Å²
O=C(c1ccc(O)cc1O)c1ccc(O)cc1O [2,2',4,4'-Tetrahydroxybenzophenone] |  | 152.3 | 
CC(C)(c1cc(Cl)c(O)c(Cl)c1)c1cc(Cl)c(O)c(Cl)c1 [2,2',6,6'-Tetrachlorobisphenol A] |  | 184.3 | 
NCCOCCOCCN [2,2'-[Ethane-1,2-diylbis(oxy)]diethanamine] |  |  | collision cross section in nitrogen [5]: 132.4 Å²
CC(C)C(OC(=O)c1ccccc1)C(C)(C)COC(=O)c1ccccc1 (stereo not drawn) [2,2,4-Trimethylpentane-1,3-diyl dibenzoate] |  |  | collision cross section in nitrogen [5]: 194.6 Å²
C=CCOCC(CC)(CO)COCC=C [2,2-Bis[(prop-2-en-1-yloxy)methyl]butan-1-ol] |  |  | collision cross section in nitrogen [5]: 150 Å²
COC(OC)(C(=O)c1ccccc1)c1ccccc1 [2,2-Dimethoxy-1,2-diphenylethanone] |  |  | collision cross section in nitrogen [5]: 170.6 Å²
Oc1c(Cl)ccc(Cl)c1Cl [2,3,6-Trichlorophenol] |  | 128.9 | 
CCCCOCCOC(=O)COc1cc(Cl)c(Cl)cc1Cl [2,4,5-T-butotyl] |  |  | collision cross section in nitrogen [5]: 184.2 Å²
Oc1cc(Cl)c(Cl)cc1Cl [2,4,5-Trichlorophenol sodium salt] |  | 128.6 | 
Oc1cc(Cl)c(Cl)cc1Cl [2,4,5-Trichlorophenol] |  | 128.7 | 
Oc1c(Br)cc(Br)cc1Br [2,4,6-Tribromophenol] |  | 135.2 | 
Oc1c(I)cc(I)cc1I [2,4,6-Triiodophenol] |  | 143.5 | collision cross section in nitrogen [4]: 139.5 Å²
CC(C)(C)c1cc(C(C)(C)C)c(O)c(C(C)(C)C)c1 [2,4,6-Tris(tert-butyl)phenol] |  | 173.2 | 
CC(C)(c1ccccc1)c1ccc(O)c(C(C)(C)c2ccccc2)c1 [2,4-Bis(1-methyl-1-phenylethyl)phenol] | 171.9 | 187.8 | 
CC(C)Nc1nc(Cl)nc(NC(C)C)n1 [2,4-Bis(isopropylamino)-6-chloro-1,3,5-triazine] | 155.3 |  | collision cross section in nitrogen [1]: 154.9 Å²
CCCCOCCOC(=O)COc1ccc(Cl)cc1Cl [2,4-D-Butotyl] |  |  | collision cross section in nitrogen [5]: 177 Å²
CC(C)COC(=O)COc1ccc(Cl)cc1Cl [2,4-D-isobutyl] |  |  | collision cross section in nitrogen [5]: 172.2 Å²
Cc1ccc(N)cc1N [2,4-Diaminotoluene] | 122.3 |  | 

More lines, main results first:

collision cross section in nitrogen [2] [Å²] | collision cross section in nitrogen [3] [Å²] | Compound | other results
 | 167.6 | Nc1cc(Cl)c(-c2cc(Cl)c(N)cc2Cl)cc1Cl [2,2',5,5'-Tetrachlorobenzidine] | collision cross section in nitrogen [4]: 164.9 Å²
 | 158.6 | CCC(CO)(CO)COCC(CC)(CO)CO [2,2'-(Oxydimethanediyl)bis(2-ethylpropane-1,3-diol)] | collision cross section in nitrogen [5]: 159.6 Å²
193.2 |  | CCCCCCCCCCCCCCN(CCO)CCO [2,2'-(Tetradecylimino)diethanol] | collision cross section in nitrogen [1]: 193 Å²; collision cross section in nitrogen [5]: 187.4 Å²
127 |  | c1ccc(-c2ccccn2)nc1 [2,2'-Bipyridine] | collision cross section in nitrogen [1]: 126.4 Å²
194 | 206 | O=C(Nc1ccccc1SSc1ccccc1NC(=O)c1ccccc1)c1ccccc1 [2,2'-Dibenzoylaminodiphenyl disulfide] | collision cross section in nitrogen [1]: 194.6 Å²; collision cross section in nitrogen [5]: 203 Å²
 | 195.4 | Cc1cc(Cc2cc(C)cc(C(C)(C)C)c2O)c(O)c(C(C)(C)C)c1 [2,2'-Methylenebis(4-methyl-6-tert-butylphenol)] | 
 | 203.6 | CCc1cc(Cc2cc(CC)cc(C(C)(C)C)c2O)c(O)c(C(C)(C)C)c1 [2,2'-Methylenebis(ethyl-6-tert-butylphenol)] | 
133.5 |  | NCCCN(CCO)CCO [2,2'-[(3-Aminopropyl)imino]diethanol] | collision cross section in nitrogen [1]: 132.7 Å²; collision cross section in nitrogen [5]: 135.8 Å²
143.4 |  | Cc1ccc(N(CCO)CCO)cc1 [2,2'-[(4-Methylphenyl)imino]diethanol] | collision cross section in nitrogen [1]: 141.8 Å²; collision cross section in nitrogen [5]: 151 Å²
135.1 |  | CC1(C)CC(N)CC(C)(C)N1 [2,2,6,6-Tetramethylpiperidin-4-amine] | collision cross section in nitrogen [1]: 133.5 Å²
135 |  | CC1(C)Cc2cccc(N)c2O1 [2,2-Dimethyl-2,3-dihydro-1-benzofuran-7-amine] | collision cross section in nitrogen [1]: 135.8 Å²
 | 153.6 | COc1ccc(C(=O)c2ccccc2O)c(O)c1 [2,2′-Dihydroxy-4-methoxybenzophenone] | 
 | 142.9 | Oc1ccccc1Cc1ccccc1O [2,2′-Methylenebis[phenol]] | 
 | 133.8 | Oc1c(Cl)cc(Cl)c(Cl)c1Cl [2,3,4,6-Tetrachlorophenol] | 
 | 151.1 | O=C(c1ccccc1)c1ccc(O)c(O)c1O [2,3,4-Trihydroxbenzophenone] | 
 | 143.9 | O=C(O)c1c(Cl)ccc(Cl)c1Cl [2,3,6-Trichlorobenzoic acid] | 
 | 130.9 | Cc1ccc(C)c(O)c1C [2,3,6-Trimethylphenol] | 
118.5 |  | Nc1cccnc1N [2,3-Diaminopyridine] | 
141.3 |  | CC1=CP(=O)(c2ccccc2)CC1 (stereo not drawn) [2,3-Dihydro-4-methyl-1-phenyl-1H-phosphole 1-oxide] | collision cross section in nitrogen [1]: 141.7 Å²; collision cross section in nitrogen [5]: 160.6 Å²; collision cross section in nitrogen [4]: 138 Å²
 | 126.6 | Cc1cccc(O)c1C [2,3-Dimethylphenol] | 
 | 152.8 | O=C(c1ccc(O)cc1)c1ccc(O)cc1O [2,4,4'-Trihydroxybenzophenone] | 
 | 142.8 | O=S(=O)(O)c1cc(Cl)c(Cl)cc1Cl [2,4,5-Trichlorobenzenesulfonic acid] | 
 | 140.5 | Cc1cc(C)c(C(=O)O)c(C)c1 [2,4,6-Trimethylbenzoic acid] | 
 | 155.1 | CC(C)(C)c1ccc(O)c(C(C)(C)C)c1 [2,4-Di-tert-butylphenol] | 
 | 137.9 | Nc1ccc(S(=O)(=O)O)c(N)c1 [2,4-Diaminobenzenesulfonic acid] | 
 | 135.4 | Cc1cc(O)c(Cl)c(C)c1Cl [2,4-Dichloro-3,5-dimethylphenol] | 
